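In this assay, cells in 96-well plates receive the compound at five concentrations for 48 hours. Endpoints are linearly interpolated between the surrounding concentrations. TGI denotes the concentration required for complete inhibition of growth.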 *1 amine or outer side, *2 acyl side, *3 side chain or, on linkers, in order; H or OH if unused. Where a SMILES comes first, the peptide text is derived from it. [ ]: non-standard residue; d: D form. The star is where a group is joined. X31 = CC(=O)N(C)SCC(N[*:1])C(=O)[*:2]; Fmoc = O=C(OCC1c2ccccc2-c2ccccc21)*; For = O=C*

Experiment in all cases: growth of human tumour cells (NCI), 48 h
In assay [1] the test system is PC-3 prostate.
The subject of assay [2] is NCI-H23 lung.
Assay [3] concerns 786-0 renal.
The test system of assay [4] is T-47D breast.
Assay [5] concerns MALME-3M melanoma.
Assay [6] concerns U251 CNS.
The subject of assay [7] is M14 melanoma.
The test system of assay [8] is SK-MEL-5 melanoma.
Assay [9] has as its system HS 578T breast.
Assay [10] concerns SK-MEL-28 melanoma.
Assay [11] relates to OVCAR-4 ovarian.
Assay [12] concerns SK-MEL-2 melanoma.

Regarding `COC(=O)C1=NN2c3ccccc3CN([C@@H](C)c3ccccc3)C(=O)[C@H]2[C@@H]1C`, the TGI was over 100 µM in assay [1]; over 100 µM in assay [2]; over 100 µM in assay [3]; 88.3 µM in [4]; over 100 µM in assay [5]; over 100 µM in [6]. Moreover, the TGI was over 100 µM in [7]; 30.1 µM in [8]; over 100 µM in assay [9]; over 100 µM in assay [10]; over 100 µM in [11]; over 100 µM in [12].
With `CC(=O)N(C)SCC(NC(=O)C(Cc1ccccc1)NC(=O)OCC1c2ccccc2-c2ccccc21)C(=O)NC(Cc1ccccc1)C(=O)NC(Cc1cn(C=O)c2ccccc12)C(=O)NC(CCCCNC(=O)OCC1c2ccccc2-c2ccccc21)C(=O)NC(C(=O)NC(CSN(C)C(C)=O)C(=O)NC(C(N)=O)C(C)O)C(C)O` (stereo not drawn) (Fmoc-F[X31]FW(For)K(Fmoc)T[X31]T-NH2; configuration not given here), the TGI in assay [1], in [2], in assay [3], in assay [4], in assay [5] and in assay [6] was over 100 µM throughout. The TGI in assay [7], in [8], in assay [9], in [10], in assay [11] and in assay [12] was over 100 µM in each case.
Turning to `Nc1nc(NCCOCP(=O)(O)O)c(N)c(=O)[nH]1`, the TGI in assay [1], in assay [2], in [3], in [4], in assay [5] and in assay [6] was over 100 µM in each case. Further, the TGI in assay [7], in assay [8], in assay [9], in assay [10], in assay [11] and in assay [12] was over 100 µM each time.
Turning to `CC/C=C/C(/C=C/C[C@]1(CC)C[C@H](CC)[C@H](CC(=O)O)OO1)CC` (stereo partly drawn), the TGI in assay [1] was 3.69 µM; in assay [2] it was 6.04 µM; in [3], 3.32 µM; in [4], over 23.1 µM; in assay [5] it was 29.3 µM; in assay [6] it was 3.36 µM. Further, the TGI in assay [7] worked out at 26.5 µM; in [8], 10.1 µM; in assay [9], 4.85 µM; in assay [10], 7.41 µM; in assay [11], 3 µM; in [12], 9.11 µM.
On to `O=C(O)CO/N=C1/C(c2c(O)[nH]c3ccccc23)=Nc2ccccc21`, for which the TGI in [1] is over 100 µM; in assay [2], over 100 µM; in assay [3], over 100 µM; in assay [4], over 100 µM; in assay [5], 99.5 µM; in [6], over 100 µM. Further, the TGI in [7] is over 100 µM; in assay [8], 80 µM; in assay [9], over 100 µM; in assay [10], over 100 µM; in assay [11], over 100 µM; in assay [12], 80.1 µM.
Turning to `CC(=O)NC1C(OCc2ccccc2)OC(CO)C(O)C1OCC(=O)N1CCCC1C(=O)NC(CCC(=O)NCCCCCNc1c2ccccc2nc2cccc([N+](=O)[O-])c12)C(N)=O` (stereo not drawn), the TGI in assay [1] was determined as 0.0293 µM; in assay [2] it was 0.904 µM; in assay [3], 0.924 µM; in assay [4] it was 8.41 µM; in [5], 0.0425 µM; in assay [6], 0.206 µM. Moreover, the TGI in [7] was 0.0591 µM; in assay [8] it was 0.0386 µM; in assay [9] it was 0.19 µM; in [10] it was 0.11 µM; in [11] it was 3.98 µM; in [12], 0.0456 µM.
`CCSC12CC3c4cccc5c4C(CN5C(=O)c4ccccc4)CC3(O1)N(C)C2=O` (stereo not drawn): the TGI in assay [1] is 81.2 µM; in [2] it was 69.8 µM; in assay [3], over 100 µM; in [4], over 100 µM; in assay [5], 88.3 µM; in assay [6], over 100 µM. Moreover, the TGI was over 100 µM in assay [7]; 28.9 µM in [8]; over 100 µM in [9]; over 100 µM in [10]; over 100 µM in [11]; 89.5 µM in assay [12].
In the case of `CC(=O)Nc1nnc(S(=O)(=O)NC(=S)Nc2ccc(Cl)cc2)s1`, the TGI in [1], in assay [2], in [3], in [4], in assay [5] and in assay [6] was over 100 µM throughout. The TGI in assay [7], in [8], in [9], in [10], in assay [11] and in assay [12] was over 100 µM each time.
In the case of `S=C(Nc1cccc(C2(N3CCCCC3)CCCCC2)c1)Nc1cccc(C2(N3CCCCC3)CCCCC2)c1`, the TGI was over 100 µM in assay [1]; over 100 µM in assay [2]; 30.5 µM in assay [3]; 36.6 µM in assay [4]; 36.1 µM in assay [5]; 50.4 µM in assay [6]. The TGI in assay [7] was 35.5 µM; in assay [8], 33.6 µM; in assay [9] it was over 100 µM; in assay [10] it was 35.3 µM; in assay [11], over 100 µM; in assay [12] it was 33.3 µM.

The values above are taken from PubChem BioAssay (NCI).
